From publication PMC8145110, “Design, Synthesis, and Antibacterial Screening of Some Novel Heteroaryl-Based Ciprofloxacin Derivatives as DNA Gyrase and Topoisomerase IV Inhibitors” (Pharmaceuticals, 2021)
In brackets after ≈: the same amount, converted by molar mass.

Tests used:
[1] = test system: Staphylococcus aureus (ATCC 12600); experiment: Kirby-Bauer disc diffusion, S. aureus; assay type: cell-based; conditions: % of ciprofloxacin
Protocol: (§1) An updated Kirby-Bauer disc diffusion method was used to assess the antimicrobial activity of the tested samples [32, 33, 34, 35]. Using ciprofloxacin as a reference drug, synthetic compounds 1–21 were tested in vitro for antibacterial activity against S. aureus and B. subtilis as Gram-positive strains and E. coli and P. aeruginosa as Gram-negative strains. […]. […].
(§2) The cultures used were collected from the Cairo University’s Microanalytical Centre, Faculty of Science. An updated Kirby-Bauer disc diffusion method was applied for antimicrobial activities of the tests 1–21 compounds [32, 33, 34, 35]. See Appendix A.
The cultures used were collected from the Cairo University’s Microanalytical Centre, Faculty of Science. An updated Kirby-Bauer disc diffusion method was applied for the antimicrobial activities of the tests for compounds 1–21 [28]. Shortly after, 10 mL of fresh medium was grown to 100 μL bacteria/food until a count of 10^8 cells/mL or 10^5 cells/mL was achieved. One hundred μL microbial suspension was spread over agar plates that suited the broth in which it was held. The selected colonies of each organism that may play a pathogenic function should be from the primary agar plates and tested by the disc diffusion method for susceptibility. Plates inoculated with filamentous fungi as Aspergillus flavus were incubated at 25 °C for 48 h; Gram positive bacteria as Staphylococcus aureus (ATCC 12600, Microanalytical center, Cairo, Egypt), Bacillus subtilis (ATCC 6051); Gram negative bacteria as Escherichia coli (ATCC 11775), Pseudomonas aeuroginosa (ATCC 10145) were incubated at 35–37 °C for 24–48 h and yeast as Candida albicans (ATCC 7102) was incubated at 30 °C for 24–48 h and, then the diameters of the inhibition zones were measured in millimeters. Standard discs of ciprofloxacin (antibacterial agent), fluconazole (antifungal agent) served as positive controls for antimicrobial activity, but filter discs impregnated with 10 µL of solvent (distilled water, chloroform, DMSO) were used as a negative control. Blank paper disks (Schleicher and Schuell, Cytiva, Spain) with a diameter of 8.0 mm were impregnated with 10 µL of tested concentration of the stock solutions. When a filter paper disc impregnated with a tested chemical is placed on agar, the chemical will diffuse from the disc into the agar. This diffusion will place the chemical in the agar only around the disc. The solubility of the chemical and its molecular size will determine the size of the area of chemical infiltration around the disc. […] For the disc diffusion, the zone diameters were measured with slipping calipers of the National Committee for Clinical Laboratory Standards, and the results are given in Table 1. […]

[2] = test system: Bacillus subtilis (ATCC 6051); experiment: Kirby-Bauer disc diffusion, B. subtilis; assay type: cell-based; conditions: % of ciprofloxacin
Protocol: as §1, §2
(§3) The cultures used were collected from the Cairo University’s Microanalytical Centre, Faculty of Science. An updated Kirby-Bauer disc diffusion method was applied for the antimicrobial activities of the tests for compounds 1–21 [28]. […] Plates inoculated with filamentous fungi as Aspergillus flavus were incubated at 25 °C for 48 h; Gram positive bacteria as Staphylococcus aureus (ATCC 12600, Microanalytical center, Cairo, Egypt), Bacillus subtilis (ATCC 6051); Gram negative bacteria as Escherichia coli (ATCC 11775), Pseudomonas aeuroginosa (ATCC 10145) were incubated at 35–37 °C for 24–48 h and yeast as Candida albicans (ATCC 7102) was incubated at 30 °C for 24–48 h and, then the diameters of the inhibition zones were measured in millimeters. […]

[3] = test system: Pseudomonas aeuroginosa (ATCC 10145); experiment: Kirby-Bauer disc diffusion, P. aeruginosa; assay type: cell-based, Pseudomonas aeruginosa; conditions: % of ciprofloxacin
Protocol: as §1, §2, §3

[4] = test system: Escherichia coli (ATCC 11775); experiment: Kirby-Bauer disc diffusion, E. coli; assay type: cell-based; conditions: % of ciprofloxacin
Protocol: as §1, §2
The cultures used were collected from the Cairo University’s Microanalytical Centre, Faculty of Science. An updated Kirby-Bauer disc diffusion method was applied for the antimicrobial activities of the tests for compounds 1–21 [28]. Shortly after, 10 mL of fresh medium was grown to 100 μL bacteria/food until a count of 10^8 cells/mL or 10^5 cells/mL was achieved. One hundred μL microbial suspension was spread over agar plates that suited the broth in which it was held. The selected colonies of each organism that may play a pathogenic function should be from the primary agar plates and tested by the disc diffusion method for susceptibility. Plates inoculated with filamentous fungi as Aspergillus flavus were incubated at 25 °C for 48 h; Gram positive bacteria as Staphylococcus aureus (ATCC 12600, Microanalytical center, Cairo, Egypt), Bacillus subtilis (ATCC 6051); Gram negative bacteria as Escherichia coli (ATCC 11775), Pseudomonas aeuroginosa (ATCC 10145) were incubated at 35–37 °C for 24–48 h and yeast as Candida albicans (ATCC 7102) was incubated at 30 °C for 24–48 h and, then the diameters of the inhibition zones were measured in millimeters. […] For the disc diffusion, the zone diameters were measured with slipping calipers of the National Committee for Clinical Laboratory Standards, and the results are given in Table 1. […]

E. coli topoisomerase IV = target: T1, E. coli topoisomerase IV (Escherichia coli, UniProt P0AFI2+P20083); experiment: E. coli topoisomerase IV assay; assay type: biochemical
T1 construct: purchased Inspiralis
T1 sequence (P0AFI2 whole entry): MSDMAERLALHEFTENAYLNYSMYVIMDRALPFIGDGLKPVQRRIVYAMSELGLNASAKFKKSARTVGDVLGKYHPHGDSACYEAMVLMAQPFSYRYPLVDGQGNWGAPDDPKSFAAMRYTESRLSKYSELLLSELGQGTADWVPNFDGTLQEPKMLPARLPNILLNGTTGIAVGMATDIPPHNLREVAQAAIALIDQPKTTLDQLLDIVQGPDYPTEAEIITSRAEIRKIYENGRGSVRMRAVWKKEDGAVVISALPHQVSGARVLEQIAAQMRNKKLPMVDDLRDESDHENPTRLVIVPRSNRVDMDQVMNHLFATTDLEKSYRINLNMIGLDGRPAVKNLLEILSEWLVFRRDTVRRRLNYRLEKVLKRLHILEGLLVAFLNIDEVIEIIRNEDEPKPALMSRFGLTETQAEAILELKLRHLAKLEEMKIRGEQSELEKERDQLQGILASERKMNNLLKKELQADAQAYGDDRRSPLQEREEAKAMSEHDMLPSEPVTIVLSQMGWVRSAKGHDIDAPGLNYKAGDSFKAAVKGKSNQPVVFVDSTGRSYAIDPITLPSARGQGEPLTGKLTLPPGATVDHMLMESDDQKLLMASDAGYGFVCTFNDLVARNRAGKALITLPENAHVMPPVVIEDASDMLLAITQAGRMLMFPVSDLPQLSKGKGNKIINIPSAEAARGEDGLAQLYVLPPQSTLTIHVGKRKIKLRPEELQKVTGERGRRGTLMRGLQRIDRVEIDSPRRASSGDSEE
T1 sequence (P20083 whole entry): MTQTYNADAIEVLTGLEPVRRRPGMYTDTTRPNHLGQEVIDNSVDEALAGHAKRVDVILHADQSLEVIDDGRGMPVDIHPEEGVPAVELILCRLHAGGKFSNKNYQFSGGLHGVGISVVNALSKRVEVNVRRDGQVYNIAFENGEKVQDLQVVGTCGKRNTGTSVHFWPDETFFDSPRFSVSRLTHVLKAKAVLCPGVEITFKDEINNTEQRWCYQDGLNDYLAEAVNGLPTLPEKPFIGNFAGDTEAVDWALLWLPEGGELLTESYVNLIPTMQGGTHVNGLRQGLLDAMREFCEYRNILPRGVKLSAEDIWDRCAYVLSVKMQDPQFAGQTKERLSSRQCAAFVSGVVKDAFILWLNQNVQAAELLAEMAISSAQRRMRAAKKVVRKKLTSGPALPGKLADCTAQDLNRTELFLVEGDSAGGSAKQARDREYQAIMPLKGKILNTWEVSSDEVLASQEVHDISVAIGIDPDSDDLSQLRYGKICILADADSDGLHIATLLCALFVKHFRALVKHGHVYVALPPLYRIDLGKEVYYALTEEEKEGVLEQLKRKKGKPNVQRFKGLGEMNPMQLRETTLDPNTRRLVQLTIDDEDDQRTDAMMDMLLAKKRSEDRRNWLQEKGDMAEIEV
Protocol: (§4) IC50 assay determination was carried out in accordance with the procedures previously stated (see Appendix A).
(§5) Inhibitory activities were determined in an assay from Inspiralis on streptavidin-coated 96-well microtiter plates from Thermo scientific Pierce. […] After washing off the unbound oligonucleotide, the enzyme test was performed. […] After that, the TF buffer (50 mM NaOAc with pH 5.0, 50 mM NaCl and 50 mM MgCl2) was added to terminate the enzymatic reaction. After additional incubation for 30 min at rt, during which biotin-oligonucleotide-plasmid triplex was 19 formed, the unbound plasmid was washed off using TF buffer and SybrGOLD in T10 buffer (10 mM Tris HCl with pH 8.0 and 1 mM EDTA) was added. […] Initial screening was done at 100 or 10 μM concentration of inhibitors. […] GraphPad Prism software was used to calculate the IC50 values. The result is given as the average value of three independent measurements. […] Determination of inhibitory activities on E. coli and S. aureus Topoisomerase IV IC50 values were determined in an assay from Inspiralis on streptavidin-coated 96-well microtiter plates from Thermo scientific Pierce. […] After washing off the unbound oligonucleotide, the enzyme test was performed. The reaction volume of 30 μL in buffer (40 mM HEPES KOH with pH 7.6, 100 mM potassium glutamate, 10 mM magnesium acetate, 10 mM DTT, 1 mM ATP, 0.05 mg/mL albumin) contained 1.5 U of topoisomerase IV from E. coli or S. aureus, 0.75 μg of pNO1 supercoiled plasmid, and 3 μL solution of the inhibitor in DMSO (10%) and Tween 20 (0.008%). […] After additional incubation for 30 min at rt, during which triplex (biotin-oligonucleotide-plasmid) was formed, the unbound plasmid was washed off using TF buffer and SybrGOLD in T10 buffer (10 mM Tris HCl with pH 8.0 and 1 mM EDTA) was added. […] Initial screening was done at 100 or 10 μM concentration of inhibitors. […] GraphPad Prism software was used to calculate the IC50 values. The result is given as the average value of three independent measurements.

E. coli = experiment: MIC, two-fold serial dilution, E. coli; assay type: cell-based; conditions: Escherichia coli; read-out: Minimum Inhibitory Concentration (MIC), E. coli
Protocol: (§6) Table 2, using the reference drug ciprofloxacin, was presented with the MICs (minimal inhibitory concentrations) of these compounds against tested bacteria. […] The nature of aromatic substitution in the oxadiazole moiety tends to be correlated with higher antibacterial effects and the activity increased with (Ar) in the order of 2-pyridyl ≥ 3-pyridyl > 4-pyridyl > 2-Cl-Ph > 2-naphthyl.
(§7) On 96-well microtiter plates and […] of fresh bacterial culture of a single McFarland unit overnight, a double serial dilution of each compound […] in sterile standard saline was prepared for every single source well. Ciprofloxacin antibiotic (5 mg/mL^−1) and normal saline were included as standard references in each assay (see Appendix A).
(§8) In 96-well microtiter plates and […] of fresh bacterial culture of a single McFarland unit overnight, a double serial dilution of each compound […] in sterile standard saline was prepared for every single source well. Ciprofloxacin antibiotic (5 mg/mL^−1) and normal saline were included as standard reference in each assay. The plates were incubated at 37 °C overnight. As an indicator of bacterial growth, […] of p-iodonitrotetrazolium violet (INT) was added to each well and incubated at 37 °C for 30 min. […] The colorless tetrazolidium salt acts as an electron accepter and is reduced to a red colored formazan product by biological activity organisms. Where bacterial growth was inhibited, the solution in the well remained clear after incubation with INT.

S. aureus = experiment: MIC, two-fold serial dilution, S. aureus; assay type: cell-based, Staphylococcus aureus; conditions: for MIC: Staphylococcus aureus, read-out: Minimum Inhibitory Concentration (MIC), S. aureus
Protocol: as §6, §7, §8

B. subtilis = experiment: MIC, two-fold serial dilution, B. subtilis; assay type: cell-based; conditions: Bacillus subtilis; read-out: Minimum Inhibitory Concentration (MIC), B. subtilis
Protocol: as §6, §7, §8

P. aeruginosa = experiment: MIC, two-fold serial dilution, P. aeruginosa; assay type: cell-based; conditions: Pseudomonas aeruginosa; read-out: Minimum Inhibitory Concentration (MIC), P. aeruginosa
Protocol: as §6, §7, §8

E. coli DNA gyrase = target: T2, E. coli DNA gyrase (Escherichia coli, UniProt P0AES4+P0AES6); experiment: E. coli DNA gyrase assay; assay type: biochemical
T2 construct: purchased Inspiralis
T2 sequence (P0AES4 whole entry, one chain of several): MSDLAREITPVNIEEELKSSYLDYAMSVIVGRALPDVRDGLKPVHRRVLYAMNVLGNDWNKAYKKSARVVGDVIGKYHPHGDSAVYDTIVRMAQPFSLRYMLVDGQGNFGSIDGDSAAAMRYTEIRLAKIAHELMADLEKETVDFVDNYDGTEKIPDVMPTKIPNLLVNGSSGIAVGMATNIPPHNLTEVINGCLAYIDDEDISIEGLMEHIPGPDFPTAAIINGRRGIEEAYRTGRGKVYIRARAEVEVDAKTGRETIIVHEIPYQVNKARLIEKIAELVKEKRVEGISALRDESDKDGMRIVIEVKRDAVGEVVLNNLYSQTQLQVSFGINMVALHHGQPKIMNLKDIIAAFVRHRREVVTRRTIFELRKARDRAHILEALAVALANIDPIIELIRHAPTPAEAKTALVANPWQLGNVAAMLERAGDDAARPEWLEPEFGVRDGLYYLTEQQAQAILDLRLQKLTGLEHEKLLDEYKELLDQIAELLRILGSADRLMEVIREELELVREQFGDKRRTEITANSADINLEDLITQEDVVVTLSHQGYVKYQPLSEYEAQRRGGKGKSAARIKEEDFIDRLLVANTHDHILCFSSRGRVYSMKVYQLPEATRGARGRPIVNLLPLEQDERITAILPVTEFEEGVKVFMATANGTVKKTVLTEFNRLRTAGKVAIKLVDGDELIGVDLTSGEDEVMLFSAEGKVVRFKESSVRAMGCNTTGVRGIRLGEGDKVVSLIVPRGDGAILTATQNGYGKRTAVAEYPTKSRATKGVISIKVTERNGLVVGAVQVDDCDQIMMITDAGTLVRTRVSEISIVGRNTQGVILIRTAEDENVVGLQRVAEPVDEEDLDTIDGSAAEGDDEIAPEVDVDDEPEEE
Protocol: as §4, §5

[5] = Cell viability assay (MTT); assay type: cell-based; parameters: dose or concentration left out as unconfirmed; conditions: human, MCF-10A mammary gland epithelial cells, four days
Protocol: A human mammary gland epithelial cell line (MCF-10A) was used to conduct a cell viability assay. Compounds 2–6 were incubated with MCF-10A cells for four days, and the viability of the cells was determined using the 3-(4,5-dimethylthiazol-2-yl)-2,5-diphenyltetrazolium bromide (MTT) assay. All compounds had no cytotoxic effects, and the viability of the cells was greater than 85% for most of the compounds examined […], as shown in Table 4.
MTT Assay was performed to investigate the effect of compounds 2–6 on the viability of mammary epithelial cells (MCF-10A) (see Appendix A).

[6] = target: S. aureus topoisomerase IV; parameters: method as in PMID 29206345; conditions: value given in method; read-out: IC50 of internal standard, S. aureus topoisomerase IV; cited from earlier work

| SMILES | antibacterial activity relative to ciprofloxacin, S. aureus [1] | antibacterial activity relative to ciprofloxacin, B. subtilis [2] [%] | antibacterial activity relative to ciprofloxacin, P. aeruginosa [3] [%] | melting point [°C] | antibacterial activity relative to ciprofloxacin, E. coli [4] | IC50 (E. coli topoisomerase IV) [µM] | MIC (E. coli) [µg/mL] | MIC (S. aureus) [µg/mL] | MIC (B. subtilis) [µg/mL] | MIC (P. aeruginosa) [µg/mL] | IC50 (E. coli DNA gyrase) [µM] | viability at 4 days [5] [%] | remaining activity at 1 µM (E. coli topoisomerase IV; read-out: RA (%), residual activity of E. coli Topo IV) [%] | MIC, S. aureus (S. aureus) [µg/mL] | remaining activity at 1 µM (E. coli DNA gyrase; read-out: RA (%), residual activity of E. coli DNA Gyrase) [%] | IC50 [6] [µM] |
| --- | --- | --- | --- | --- | --- | --- | --- | --- | --- | --- | --- | --- | --- | --- | --- | --- |
| O=C(O)c1cn(C2CC2)c2cc(N3CCN(CN4C(=O)SC(=Cc5ccccc5)C4=O)CC3)c(F)cc2c1=O [Compound 16, 7-[4-(5-Benzylidene-2,4-dioxo-thiazolidin-3-ylmethyl)-piperazin-1-yl]-1-cyclo-propyl-6-fluoro-4-oxo-1,4-dihydro-quinoline-3-carboxylic acid] | 85% | 93 | 93 | 237 | 93% | – | – | – | – | – | – | – | – | – | – | – |
| O=C(O)c1cn(C2CC2)c2cc(N3CCN(Cn4nc(-c5cccnc5)oc4=S)CC3)c(F)cc2c1=O [Compound 5, 1-Cyclopropyl-6-fluoro-4-oxo-7-[4-(5-pyridin-3-yl-2-thioxo-[1,3,4]oxadiazol-3-yl-methyl)-piperazin-1-yl]-1,4-dihydro-quinoline-3-carboxylic acid] | equipotent | – | – | 230 | equipotent | 6.8 ± 0.2 | 0.062 (≈ 0.119 µM) | 0.035 (≈ 0.067 µM) | 0.125 (≈ 0.239 µM) | 0.125 (≈ 0.239 µM) | 0.092 ± 0.009 | 91 | – | – | – | – |
| O=C(O)c1cn(C2CC2)c2cc(N3CCN(Cn4nc(-c5ccncc5)oc4=S)CC3)c(F)cc2c1=O [Compound 6, 1-Cyclopropyl-6-fluoro-4-oxo-7-[4-(5-pyridin-4-yl-2-thioxo-[1,3,4]oxadiazol-3-yl-methyl)-piperazin-1-yl]-1,4-dihydro-quinoline-3-carboxylic acid] | 120% | – | – | – | – | 8.92 ± 0.2 | 0.125 (≈ 0.239 µM) | 0.031 (≈ 0.0593 µM) | 0.125 (≈ 0.239 µM) | 0.125 (≈ 0.239 µM) | 0.18 ± 0.02 | 87 | – | – | – | – |
| O=C(O)c1cn(C2CC2)c2cc(N3CCN(Cn4nc(-c5ccccc5Cl)oc4=S)CC3)c(F)cc2c1=O [Compound 2, 7-{4-[5-(2-Chloro-phenyl)-2-thioxo-[1,3,4]oxadiazol-3-ylmethyl]-piperazin-1-yl}-1-cyclopropyl-6-fluoro-4-oxo-1,4-dihydro-quinoline-3-carboxylic acid] | – | – | – | 226 | – | – | 0.125 (≈ 0.225 µM) | 0.162 (≈ 0.291 µM) | 0.125 (≈ 0.225 µM) | 0.125 (≈ 0.225 µM) | – | 87 | 89 | 0.062 (≈ 0.112 µM) | 57 | – |
| CO[C@@H]1[C@@H](OC(N)=O)[C@@H](O)[C@H](Oc2ccc3c(O)c(NC(=O)c4ccc(O)c(CC=C(C)C)c4)c(=O)oc3c2C)OC1(C)C [Novobiocin] | – | – | – | – | – | – | – | – | – | – | – | – | – | – | – | 26.7 |
| O=C(O)c1cn(C2CC2)c2cc(N3CCN(Cn4nc(-c5ccccn5)oc4=S)CC3)c(F)cc2c1=O [Compound 4, 1-Cyclopropyl-6-fluoro-4-oxo-7-[4-(5-pyridin-2-yl-2-thioxo-[1,3,4]oxadiazol-3-yl-methyl)-piperazin-1-yl]-1,4-dihydro-quinoline-3-carboxylic acid] | equipotent | – | – | 218 | equipotent | 1.47 ± 0.2 | 0.062 (≈ 0.119 µM) | 0.035 (≈ 0.067 µM) | 0.125 (≈ 0.239 µM) | 0.062 (≈ 0.119 µM) | 0.042 ± 0.007 | 89 | – | – | – | – |
